# In patent US5118681A (priority 1989, dated 1992):
# Where two headings read alike, the source gives them in different places.
# Legend:
# [1] = system: Phytophthora infestans; experiment: whole plant or invertebrate; assay type: in vivo; settings: for pest or weed control at 100 ppm / pest or weed control at 200 ppm / pest or weed control at 300 ppm: Phytophthora infestans, in Solanum lycopersicum, 96 h, read-out: % control TLB
# [2] = system: Pseudomonas fluorescens (Ps.fl); experiment: MIC, broth two-fold serial dilution (Table 3), Ps.fl; assay type: cell-based; settings: read-out: MIC Ps.fl
# Excerpt: (§1) A minimum inhibitory concentration (MIC) value is obtained using a broth, two-fold serial dilution test performed as follows: A stock solution or dispersion of the test compound, typically at a concentration of 1%, is made in a 5:3:2 solvent solution of acetone, methanol, and water. A volume of the stock solution is dispensed into culture media to give an initial starting test concentration of 500 ppm compound.
# (§2) When the test is ready to be done, each vessel in the dilution series, except the first vessel, contains an equal volume of compound free broth. The first vessel contains twice the volume of broth with the starting concentration of test compound. One half of the broth from the first vessel is transferred to the second vessel. After being mixed, one half the resulting volume is removed from the second vessel and transferred to the third vessel. The entire cycle is repeated sufficiently to give a series of concentrations amounting to 500, 250, 125, 63, 31, 16, 8, and 4 ppm, respectively.
# (§3) Each vessel is then inoculated with a cell suspension of the appropriate test organism. Bacteria are grown in broth and fungi on agar slants for a time and at a temperature appropriate to the species being tested. At the end of the growth period, the broth is vortexed to disperse the cells. In the case of fungi, the spores are harvested by pipetting water onto the slant and dislodging the spores with a sterile loop. The cell/spore suspension is standardized by controlling incubation time, temperature, and the volume of the diluent. The suspension is then used to inoculate the vessels containing the broth compound. The vessels are then incubated at the appropriate temperature. After the incubation, the vessels are examined for growth/no growth. The minimum inhibitory concentration (MIC) is defined as the lowest concentration of compound that results in complete inhibition of growth of the test organism.
# Pseudomonas fluorescens (Ps.fl), gram negative
# [3] = system: ps.fl bacteria; experiment: Speed of Kill (SOK) test, 4 h, synthetic hard water (Table 3); assay type: cell-based; settings: Pseudomonas fluorescens, read-out: SOK (concentration at which compound killed >99.999% of the cells)
# Excerpt: The Speed of Kill (SOK) Test measures the loss of cell viability in an aqueous suspension of bacterial cells during a four hour period when these cells are contacted with a defined concentration of the test compound in synthetic hard water (SHW). A stock solution or dispersion of the test compound, typically at a concentration of 1%, is made in a 5:3:2 solvent solution of acetone, methanol, and water. The SHW is made by taking one liter of sterile deionized water and adding the following solutions to it:
# 1. 2 ml of a solution of 31.74 g of MgCl2 and 73.99 g of CaCl2 in 1000 ml of sterile distilled water which has been heat sterillized.
# 2. 4 ml of a solution of 56.03 g of NaHCO3 in 1000 ml of water which has been filter sterillized.
# The combined solution is then filter sterilized to yield the SHW. A volume of the stock solution is dispensed into the SHW to give an initial test compound starting concentration of 500 ppm.
# as §2, with “run,” for “done,”, “the SHW mixture with the test compound.” for “compound free broth.”, “SHW” for “broth”
# Each vessel is then inoculated with a cell suspension of the ps.fl bacteria. The bacteria were grown on a 1% agar slant tube and incubated for 18-24 hours at 30° C. Thereafter, the tube is washed with four ml of sterile water. This was is diluted to a density of 60 to 80 Nephlolmeter Turbidity Units (NTU). To 100 ml of the SHW containing the various concentrations of the test compound is added 0.75 ml of inoculum from the 60-80 NTU wash with good mixing. After 4 hours from the time of addition at 30° C., 5 μl of solution is transferred to 100 μl of a broth solution in order to recover any living cells. This mixture is incubated for 24 hours at 30° C. before noting the concentration in ppm at which each compound killed >99.999% of the cells in the SHW solution.
# [4] = system: Aspergillus niger (A.n); experiment: MIC, broth two-fold serial dilution (Table 3), A.n; assay type: cell-based; settings: read-out: MIC A.n
# Excerpt: as §1, §2, §3
# [5] = system: Escherichia coli (E.c); experiment: MIC, broth two-fold serial dilution (Table 3), E.c; assay type: cell-based; settings: read-out: MIC E.c
# Excerpt: as §1, §2, §3
# Escherichia coli (E.c), gram negative
# [6] = system: Aureobasidium pullulans (A.p); experiment: MIC, broth two-fold serial dilution (Table 3), A.p; assay type: cell-based; settings: read-out: MIC A.p
# Excerpt: as §1, §2, §3
# Aureobasidium pullulans (A.p)
# [7] = system: Staphylococcus aureus (S.a); experiment: MIC, broth two-fold serial dilution (Table 3), S.a; assay type: cell-based; settings: read-out: MIC S.a
# Excerpt: as §1, §2, §3
# Staphylococcus aureus (S.a), gram positive
# [8] = system: Pseudomonas aerugenosa (Ps.ae); experiment: MIC, broth two-fold serial dilution (Table 3), Ps.ae; assay type: cell-based; settings: read-out: MIC Ps.ae
# Excerpt: as §1, §2, §3
# Pseudomonas aerugenosa (Ps.ae), gram negative
# [9] = system: Pseudoperonospora cubensis; experiment: whole plant or invertebrate; assay type: in vivo
# [10] = system: Pellicularia filamentosa (f. sp. sasiki); experiment: whole plant or invertebrate; assay type: in vivo
# [11] = system: Piricularia oryzae; experiment: whole plant or invertebrate; assay type: in vivo
# [12] = system: Erysiphe graminis (f. sp. tritici); experiment: whole plant or invertebrate; assay type: in vivo
# [13] = system: Puccinia recondita (f. sp. tritici Races PKB and PLD); experiment: whole plant or invertebrate; assay type: in vivo
# [14] = system: Puccinia graminis (f. sp. tritici Race 15B-2); experiment: whole plant or invertebrate; assay type: in vivo; settings: 336 h, read-out: % control WSR
# [15] = system: Pseudomonas fluorescens; experiment: Minimum Inhibitory Concentration Test, alternate (Table 4), Ps.fl; assay type: cell-based; settings: TSB, 72 hours, 30° C; for MIC: Pseudomonas fluorescens
# In short: (§4)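 Compound in acetone was diluted into TSB and serially diluted 1:1 from 250 ppm down to 0.8 ppm, in duplicate. Plates were inoculated with diluted 24 h culture and incubated 3 days at 30° C; MIC recorded as lowest concentration with no growth.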
# [16] = system: A.n; experiment: Minimum Inhibitory Concentration Test, alternate (Table 4), A.n; assay type: cell-based, Aspergillus niger; settings: TSB, 72 hours; for MIC: Aspergillus niger
# In short: as §4
# [17] = system: Pseudomonas fluorescens; experiment: Speed of Kill Test, alternate, 24 h, synthetic hard water (Table 4); assay type: cell-based; settings: Ps.fl in synthetic hard water, 100 ppm
# [18] = system: Ps.ae; experiment: Minimum Inhibitory Concentration Test, alternate (Table 4), Ps.ae; assay type: cell-based, Pseudomonas aerugenosa; settings: Pseudomonas, TSB, 72 hours
# [19] = system: S.a; experiment: Minimum Inhibitory Concentration Test, alternate (Table 4), S.a; assay type: cell-based, Staphylococcus aureus; settings: Staphylococcus aureus, TSB, 72 hours
# In short: as §4
# [20] = system: E.c; experiment: Minimum Inhibitory Concentration Test, alternate (Table 4), E.c; assay type: cell-based, Escherichia coli; settings: Escherichia coli, TSB, 72 hours
# In short: as §4
# [21] = system: Candida albicans (C.alb); experiment: Minimum Inhibitory Concentration Test, alternate (Table 4), C.alb; assay type: cell-based; settings: Candida albicans, TSB, 72 hours
# In short: as §4
# [22] = system: A.p; experiment: Minimum Inhibitory Concentration Test, alternate (Table 4), A.p; assay type: cell-based; settings: Aureobasidium pullulans, TSB, 72 hours
# In short: as §4
# [23] = Table 3, broth two-fold serial dilution
# [24] = Table 3, Ps.fl in synthetic hard water, 4 hours, 30° C
# [25] = Pseudoperonospora cubensis, in Cucumis sativus, 168 h, read-out: % control CDM
# [26] = Pyricularia oryzae, read-out: % control RB
# [27] = Blumeria graminis, read-out: % control WPM
# [28] = Puccinia recondita, 240 h, read-out: % control WLR
Molecule,pest or weed control at 100 ppm [1],"MIC [2, 23]","MBC [3, 24]",MIC [4],"MIC [5, 23]","MIC [6, 23]","MIC [7, 23]",MIC [8],"pest or weed control at 200 ppm [9, 25]","pest or weed control at 200 ppm [11, 26]",MIC [15],"pest or weed control at 300 ppm [12, 27]",MIC [16],"pest or weed control at 300 ppm ([10]; 120 h, read-out: % control RSB)",further results
"CCCCCCCCNC(=O)/C=C\SC(C(=O)Nc1cc(C)ccc1Cl)C(=O)OCC (stereo not drawn) [Example 42, N-n-octyl-cis-3-{2-[ethyl-N-(2-chloro-5-methylphenyl)malonamido]thio}acrylamide]",91%,8 µg/mL,125 µg/mL,< 4 µg/mL,500 µg/mL,16 µg/mL,8 µg/mL,> 500 µg/mL,,,,,,,
"CCCCCCCCNC(=O)/C=C\SC(C(=O)NCc1cccnc1)C(=O)OCC (stereo not drawn) [Example 49, N-n-octyl-cis-3-{2-[ethyl-N-((3-pyridyl)methyl)malonamido]thio}acrylamide]",90%,> 500 µg/mL,> 500 µg/mL,< 4 µg/mL,> 500 µg/mL,< 4 µg/mL,< 4 µg/mL,< 4 µg/mL,,,,,,,"pest or weed control at 100 ppm [9, 25]: 85%; pest or weed control at 100 ppm ([10]; 120 h, read-out: % control RSB): 0%; pest or weed control at 100 ppm [11, 26]: 0%; pest or weed control at 100 ppm [12, 27]: 50%; pest or weed control at 100 ppm [13, 28]: 0%"
"CCCCCCCCNC(=O)/C=C\SC(C(C)=O)C(C)=O [Example 1, N-n-octyl-cis-3-[3-(2,4-pentanedionyl)thio]acrylamide]",,> 500 µg/mL,> 500 µg/mL,8 µg/mL,> 500 µg/mL,< 4 µg/mL,< 4 µg/mL,< 4 µg/mL,100%,98%,> 500 µg/mL,25%,> 500 µg/mL,,pest or weed control at 100 ppm [14]: 50%; pest or weed control at 200 ppm [1]: 100%
"CC(=O)C(S/C(Cl)=C(/Cl)C(=O)NC1CCCCC1)C(C)=O [Example 6, N-cyclohexyl-2,3-dichloro-cis-3-[3-(2,4-pentanedionyl)thio]acrylamide]",,> 500 µg/mL,> 500 µg/mL,125 µg/mL,500 µg/mL,< 4 µg/mL,16 µg/mL,32 µg/mL,85%,70%,> 500 µg/mL,0%,> 500 µg/mL,,"pest or weed control at 300 ppm [14]: 0%; pest or weed control at 300 ppm [1]: 0%; pest or weed control at 200 ppm ([10]; 120 h, read-out: % control RSB): 0%"
"CCCCCCCCNC(=O)/C(Cl)=C(/Cl)SC(C(C)=O)C(C)=O [Example 2, N-n-octyl-2,3-dichloro-cis-3-[3-(2,4-pentanedionyl)thio]acrylamide]",,> 500 µg/mL,> 500 µg/mL,8 µg/mL,> 500 µg/mL,< 4 µg/mL,< 4 µg/mL,< 4 µg/mL,,,> 500 µg/mL,78%,> 500 µg/mL,0%,"pest or weed control at 150 ppm [14]: 85%; pest or weed control at 300 ppm [9, 25]: 85%; pest or weed control at 300 ppm [1]: 10%; pest or weed control at 300 ppm [11, 26]: 0%"
N-n-octyl-cis-3-[2-(N-benzyl-N'-n-octylmalonodiamido)thio]acrylamide [Example 61],,,,,,,,,,,,,,,% control CDM ([9]; in vivo): 99%; % control TLB ([1]; 100 ppm application rate): 0%; % control RSB ([10]; in vivo): 0%; % control RB ([11]; in vivo): 0%; MIC Ps.fl [15]: > 250 ppm; % control WPM ([12]; in vivo): 0%; MIC A.n [16]: > 250 ppm; SOK [17]: > 100 ppm; % control WLR ([13]; in vivo): 0%
"CCCCCCCCNC(=O)/C=C\SC(C(=O)OCC)C(=O)c1ccccc1 (stereo not drawn) [Example 69, N-n-octyl-cis-3-[2-(ethoxy-3-phenyl-3-oxopropanoyl)thio]acrylamide]",,,,125 µg/mL,,,,32 µg/mL,,,,,,,MIC [2]: > 500 µg/mL; MBC ([3]; 4 h): > 500 µg/mL; MIC [5]: 500 µg/mL; MIC [6]: < 4 µg/mL; MIC [7]: 16 µg/mL
"CCCCCNC(=O)/C=C\SC(C(C)=O)C(C)=O [Example 3, N-n-pentyl-cis-3-[3-(2,4-pentanedionyl)thio]acrylamide]",40%,,,,,,,,,,> 500 µg/mL,,31 to 63 µg/mL,0%,"pest or weed control at 300 ppm [14]: 60%; pest or weed control at 300 ppm [9, 25]: 98%; pest or weed control at 300 ppm [11, 26]: 0%; MIC [18]: > 500 µg/mL; pest or weed control at 100 ppm [12, 27]: 0%; MIC [19]: 125 µg/mL; MIC [20]: 125 to 250 µg/mL; MIC [21]: 31 µg/mL; MIC [22]: 8 µg/mL"
"CCCCCCCCNC(=O)/C=C\SC(C(=O)NCCCCCCCC)C(=O)OCC (stereo not drawn) [Example 18, N-n-octyl-cis-3-[2-(ethyl-N-n-octylmalonamido)thio]acrylamide]",,,,< 4 µg/mL,,,,> 500 µg/mL,97%,25%,> 500 µg/mL,,> 500 µg/mL,90%,"pest or weed control at 200 ppm [1]: 92%; MIC [2]: < 4 µg/mL; MBC ([3]; 4 h): 16 µg/mL; pest or weed control at 200 ppm [12, 27]: 0%; MIC [5]: 250 µg/mL; MIC [6]: < 4 µg/mL; pest or weed control at 200 ppm [13, 28]: 74%; MIC [7]: 8 µg/mL"
